Data reported in US7943606B2, “Compositions and methods to control abnormal cell growth” (CanCure Laboratories, LLC, priority 2005, dated 2011).
Read-outs that look alike come from different tables or passages of the source.

Legend:
[1] = Viability of MRC-5 normal lung fibroblasts (MTT assay); assay type: cell-based; details: human, MRC-5 normal lung fibroblasts; 30,000 cells per well (80-90% confluent), 72 hours, MTT; read-out: IC50 values, Cytotoxic, MRC-5
Protocol: (§1) To quantify cell death, around the time when significant and characteristic morphological changes took place, cells were pulse-labeled for 10 minutes with [^3H]thymidine to measure DNA activity as described elsewhere [Tomono, M. and Kiss, Z. (1995), “Ethanol enhances the stimulatory effects of insulin and insulin-like growth factor-I on DNA synthesis in NIH 3T3 fibroblasts,” Biochem. Biophys. Res. Commun. 208, 63-67]. Also, cells were collected as suspensions using trypsin, an established method in cell biology, followed by re-plating of cells in fresh tissue culture medium. If no viable cells were obtained after one week in culture, it meant that the cells at the time of re-plating were dead. Survival values obtained with untreated cells were considered 100%. For the determination of relative number of viable cells after treatments, in most cases the MTT assay was used. This calorimetric assay is based on the ability of living cells, but not dead cells, to reduce 3-(4,5-dimethyl thiazol-2-yl)-2,5-diphenyltetrazolium bromide [Carmichael, J, De Graff, W. G., Gazdar, A. F., Minna, J. D. and Mitchell, J. B. (1987), “Evaluation of tetrazolium-based semi-automated calorimetric assay: Assessment of chemosensitivity testing,” Cancer Res. 47, 936-942]. For this assay, cells were plated in 96-well plates, and the MTT assay was performed both in untreated and treated cell cultures. The MTT assay also was performed at the start of treatments to allow assessment of proliferation rates in the control and treated cell cultures.
(§2) The MRC-5 cell line is derived from normal lung tissue of a […] fetus. MRC-5 cells were maintained and treated in Eagles Medium with Hanks' BSS containing 10% fetal bovine serum. The T47D cells were maintained and treated in RPMI 1640 medium supplemented with 0.2 IU bovine insulin and 10% fetal bovine serum. The CaOV-3 human ovarian cancer cells were cultured in Dulbecco's modified Eagle's medium containing 10% fetal bovine serum. The cells were seeded in 96-well plates either at 10,000 cells per well or 30,000 cells per well to examine the antiproliferative and cytotoxic effects of various CC compounds, respectively. The cells were incubated for 24 hours, then the medium was changed followed by the treatments of cultures 2 hours after the medium change. At this point, cell cultures seeded at 10,000 cells per well and 30,000 cells per well were 25-35% and 80-90% confluent, respectively. Incubations were continued for 72 hours followed by the MTT assay. The data, shown in TABLE 2, indicate the inhibitory concentrations of CC compounds (IC50) required for 50% decrease in the number of viable cells. These numbers are calculated from the mean of 4 incubations in one experiment (the experiment was repeated once with similar results).

[2] = test system: MRC-5 cells; assay: as above; assay type: cell-based; details: Homo sapiens, MRC5; 10,000 cells per well (25-35% confluent), 72 hours, MTT; read-out: IC50 values, Antiproliferative, MRC-5
Protocol: as §1, §2

[3] = test system: AN3CA cells; assay: Viability of AN3CA endometrial adenocarcinoma cells (MTT assay); assay type: cell-based, human; details: 100 μM, 72 hours
Protocol: To quantify cell death, around the time when significant and characteristic morphological changes took place, cells were pulse-labeled for 10 minutes with [^3H]thymidine to measure DNA activity as described elsewhere [Tomono, M. and Kiss, Z. (1995), “Ethanol enhances the stimulatory effects of insulin and insulin-like growth factor-I on DNA synthesis in NIH 3T3 fibroblasts,” Biochem. Biophys. Res. Commun. 208, 63-67]. Also, cells were collected as suspensions using trypsin, an established method in cell biology, followed by re-plating of cells in fresh tissue culture medium. If no viable cells were obtained after one week in culture, it meant that the cells at the time of re-plating were dead. Survival values obtained with untreated cells were considered 100%. For the determination of relative number of viable cells after treatments, in most cases the MTT assay was used. This calorimetric assay is based on the ability of living cells, but not dead cells, to reduce 3-(4,5-dimethyl thiazol-2-yl)-2,5-diphenyltetrazolium bromide [Carmichael, J, De Graff, W. G., Gazdar, A. F., Minna, J. D. and Mitchell, J. B. (1987), “Evaluation of tetrazolium-based semi-automated calorimetric assay: Assessment of chemosensitivity testing,” Cancer Res. 47, 936-942]. For this assay, cells were plated in 96-well plates, and the MTT assay was performed both in untreated and treated cell cultures. […]

[4] = test system: HL-60, HT-168, PC-3 and T47D human tumor xenografts; assay: Growth of HL-60, HT-168, PC-3 and T47D human tumor xenografts in mice; assay type: in vivo, mouse
Protocol: Tumor volume was calculated according to the generally accepted formula: V=a^2×b×π/6, where “a” and “b” mean the shortest and longest diameter, respectively, of the measured tumor.

[5] = Solubility in water

CC[N+](C)(CC)CCOCc1ccc2sc3ccccc3c(=O)c2c1.[I-] [CCDTHT, N,N-diethyl-N-methyl-2-[(9-oxo-9H-thioxanthen-2-yl)methoxy]-ethanaminium iodide]
IC50 at 72 h [1]: 119 µM | IC50 [2]: 90 µM | decrease in the number of viable cells versus 0.5 mM HC-3, AN3CA [3]: much greater decreases in the number of viable cells compared to 0.5 mM HC-3 | weight loss ([4]; 50-400 μmole s.c. once daily): In none of the cases did CCDTHT cause significant weight loss | growth of each tumor (HL-60, HT-168, PC-3, T47D) ([4]; 200-400 μmole s.c. once daily): considerably reduced | solubility in water [5]: sufficiently soluble in water for injection | solubility in water ([5]; listed as CCompound3): soluble in water
